Tests used:
Assay type in all cases: cell-based, human
[1] = tested on: TNFα-induced canonical NF-κB activation; assay: TNFα-induced p65 nuclear translocation (counter screening), U2OS cells; settings: different concentrations
Experimental: FIG. 4: (A) U2OS cells were pre-treated with increasing concentrations of MW01 in triplicates in a 384 well plate. Then, cells were treated with TNFα, fixed and subjected to IF staining of p65. Spatial measurement of p65 cytosolic and nuclear signals was used for the calculation of p65 translocation rates. (B) U2OS cells were pre-treated with MW01 at concentrations of 10 or 20 μM and stimulated with TNFα. Cell lysates were subjected to SDS-PAGE/WB. (C) HEK293 cells were pre-treated with DMSO or MW01 followed by administration of etoposide or TNFα. Cell lysates were used for EMSA.
For the activation of the canonical NF-κB pathway cells were treated with recombinant human TNFα (10 ng/ml) or IL-1β (10 ng/ml) for 20-30 min at 37° C.
For immunofluorescence staining 0.95×10^5 cells were seeded in 6 well plates onto autoclaved cover slips. Cellular confluency dictated to beginning of the experiment (2-3 days from seeding). After conduction of experiments cells were washed with PBS and fixed with 4% PFA/double-distilled H2O (ddH2O) for 10 min at RT. Following two additional washing steps cells were incubated with a solution containing 0.12% glycine/0.2% saponin in PBS for 10 min and then blocked with a solution containing 10% FCS/0.2% saponin in PBS for 1 h. Primary antibody incubation was performed overnight at 4° C. (1:500 diluted in 0.2% saponin in PBS). […]

[2] = tested on: ATM cytoplasmic translocation; assay: Cytoplasmic accumulation of ATM, fractionation experiment (NE/CE) with WB, HepG2 cells; settings: 5 μM
Experimental: FIG. 7: Cytoplasmic accumulation of ATM. (A) Fractionation experiment with separated nuclear extracts (NE) and cytoplasmic extracts (CE). PARP1 and LDH staining served as loading and fractionation controls. Cells were pre-treated with DMSO or MW01 (5 μM) prior to irradiation and cell harvesting at indicated times. NE and CE were subjected to SDS-PAGE/WB procedure. (B) U2OS cells were seeded on cover slips 2 days before treatment. The cells were pre-treated with solvent DMSO alone or with MW01 prior to irradiation, cell fixation and subsequent immunofluorescence staining.
For the preparation of nuclear and cytoplasmic fractions, cells were lysed with buffer A (supplemented with 1 mM DTT, 10 mM NaF, 20 mM β-glycerophosphate, 250 nM NaVO3, complete protease inhibitor cocktail (Roche) and 50 nM calyculin A. Lysates were adjusted to a final concentration of 0.2% NP-40, vortexed for 10 s and spun down. The supernatant, representing the cytoplasmic extract (CE), was transferred into a new 1.5 ml reaction tube. The pellet was washed with buffer A, was resuspended with buffer C and shaken for 20 min at 4° C. Following 10 min of centrifugation at 14,000 rpm, the supernatant, representing the nuclear extract (NE), was transferred into a new reaction cap.

[3] = tested on: U2OS cells; assay: qRT-PCR of anti- and pro-apoptotic genes after γ-IR, U2OS cells
Experimental: FIG. 15: (A), (B) U2OS cells were pre-treated with DMSO or MW01 and irradiated. After 8 h mRNA was isolated and reversely transcribed into cDNA. The obtained cDNA was used to perform qRT-PCR using gene specific exon-exon-spanning primers for mRNA of anti-apoptotic (A) and pro-apoptotic genes (B).
To quantitate specific mRNA (messenger RNA) species in samples RNA was isolated, RNA concentration was measured and mRNA was transcribed into cDNA. The amount of mRNA transcripts of certain genes within a sample was quantified by employing gene specific primers and using a C-1000 Thermal cycler (Biorad). The expression of genes of interest was normalised against two or three reference genes (HRPT1, RPL_13a and B2M) using the CFX manager software. The fold induction of mRNA was calculated over untreated sample levels by the ΔΔ-Ct method.

COc1ccc2c(c1OC)c(=O)n1c3ccc(O)cc3c3ccnc2c31 [MW01, 12-hydroxy-6,7-dimethoxy-8H-benzo[c]indolo[3,2,1-ij][1,5]naphthyridin-8-one]
effect on p65 nuclear translocation / NF-κB activation after TNFα stimulation [1]: did not interfere with p65 nuclear translocation rates | accumulation of total ATM in the cytoplasm ([2]; 45 min after irradiation): inhibited the accumulation of ATM in the cytoplasm | detection of phosphorylated ATM in nuclear extracts ([2]; 45 min and 90 min after irradiation): did not affect | detection of activated ATM species in the cytoplasmic extracts ([2]; after irradiation): abolished | BIRC3 mRNA ([3]; 8 h after γ-IR): down-regulated | expression of BCL2L1 mRNA ([3]; 8 h after γ-IR): fully inhibited | expression of XIAP mRNA ([3]; 8 h after γ-IR): moderately inhibited | BBC3 mRNA expression, induction ([3]; after irradiation): 3 fold | PMAIP1 mRNA expression ([3]; after irradiation): further elevated | mRNA expression of TNFAIP3 ([3]; after γ-IR, in comparison to irradiated controls): abolished mRNA expression | mRNA expression of PMAIP1 ([3]; pre-treatment without irradiation): already increased | BBC3 mRNA expression ([3]; without irradiation): not influenced | mRNA expression of BIRC3, XIAP or BCL2L1 in comparison to the DMSO control ([3]; without irradiation): did not significantly change

Source: patent US11028084B2, “Selective inhibitors of gentotoxic steress-induced IKK/NF-κB pathways” (Max-Delbrück-Centrum für Molekulare Medizin in der …, priority 2016, dated 2021)
